From US10071095B2, “1,2,4-triazolo [4,3-A] pyridine derivatives and their use for the treatment of neurological and psychiatric disorders” (JANSSEN PHARMACEUTICALS, INC., priority 2009, dated 2018)
Read-outs that look alike come from different tables or passages of the source. Marks after values point to notes of the source that are not given here.

Tests used:
[1] = tested on: PCP-induced hyperlocomotion in male NMRI mice; assay: Phencyclidine (PCP)-induced hyperlocomotion in mice (video tracking); assay type: in vivo; conditions: for ED50: Mus musculus, read-out: Mice ED50 (mg/kg) PCP-Inh.; for Mice ED50 (mg/kg) PCP-Inh. / Mice ED50 (mg/kg) PCP-Inh., estimated ED50 (footnote a): inhibition of PCP-induced hyperlocomotion; for Mice ED50 (mg/kg) PCP-Inh.: dose at which 50% of the tested animals show the effect; for Mice ED50 (mg/kg) PCP-Inh., estimated ED50 (footnote a): estimated ED50 values (n = 3 per dose; 4-fold separation between doses)
Protocol: Motor Activity (Video Tracking)
Apparatus and General Procedure
On the day of experiments, the mice were brought into the procedural room. They were housed individually and allowed to acclimate for at least a half hour prior to testing. Although the studies were conducted during the light cycle (from 8:00 to 16:00 h), the procedure room was only sparsely lit (3 to 30 LUX) to provide better contrast for the video tracking. Local lighting was used for the injection procedures. During each trial, an individual mouse was placed in an open field arena (grey PVC cylinder with a height of 40 cm and a diameter of 22.5 cm). Each arena was placed on an infrared LED (8×8 LEDs)-lit box (white PVC squared box; 40×40 cm^2; height 12.5 cm). Each mouse was placed in the center of the arena and allowed to explore freely for 30 min. After each trial, the arena was cleaned with a wet and subsequently with a dry cleaning cloth. An infrared sensitive tube camera and a white light source (in arena: 4-7 LUX) were mounted to the ceiling above the observation chamber to record and input activity to a computer. Animal behavior was recorded and analyzed using the Noldus Ethovision XT Video Tracking System (Version 3.1; Noldus, Wageningen, The Netherlands). The total distance traveled (cm) was calculated. Data were then exported to data management systems for further analysis and reporting.
Phencyclidine (PCP)-Induced Hyperlocomotion in Mice
Test compound or solvent was administered at a pre-defined time before measurement (standard: 30 min) to male NMRI mice that were challenged with phencyclidine (PCP; 5 mg/kg, s.c.) 30 min before measurement. Activity was measured for a period of 30 min.

[2] = tested on: conditioned avoidance response in male Wiga Wistar rats; assay: Conditioned avoidance response (CAR) test in rats; assay type: in vivo; conditions: for ED50: Rattus norvegicus, po, read-out: ED50 (mg/kg) CAR-Inh.
Text: Conditioned Avoidance Response (CAR) Test
The apparatus consisted of an inner box surrounded by an outer box. The inner box was composed of four walls of transparent, synthetic material (length×width×height: 30×30×30 cm), an open top, and a grid floor made of 15 pairs of iron bars (2 mm diameter; 6 mm inter-bar distance). Odd and even bars were connected with a source of alternative current (1.0 mA; Coulbourn Instruments Solid State Shocker/Distributor), which could be interrupted by a switch. The outer box was composed of the same material (length×width×height: 40×40×36 cm), also with an open top, with a distance of 5 cm between the inner and outer box on all sides. To decrease the amount of environmental stimuli, three walls of the outer box were made non-transparent. The front wall was left transparent to allow the necessary inspection of the animal during the test. The upper edge of the outer and inner box served as a target for the rats on which to jump with fore- and hind-paws, respectively.
Avoidance Conditioning and Selection of Animals
From their arrival in the laboratory on the experimental day, male Wiga Wistar rats (230±30 g) were housed in individual cages provided with bedding material.
Latency to avoidance was recorded. The median avoidance response obtained over the three experimental sessions for each rat were used for further calculations.

human mGluR2 receptor = biological target: T1, human mGluR2 receptor (Homo sapiens, UniProt Q14416); assay: [35S]GTPγS binding assay, positive allosteric modulation (GTPγS-PAM) in presence of EC20 glutamate; assay type: biochemical; conditions: in presence of glutamate at EC20, average pEC50 if more experiments, ‡ means tested once; for EC50: read-out: GTPγS - hR2 PAM pEC50 (converted)
T1 construct: expressed in transfected cells; host or cells: CHO cells
Procedure, shortened: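 Membranes from butyrate-stimulated CHO cells expressing human mGluR2 (7 μg protein) preincubated 30 min at 30°C with compound plus ~EC20 glutamate in HEPES pH 7.4, 100 mM NaCl, 3 mM MgCl2, 10 μM GDP, 10 μg/ml saponin. [35S]GTPγS (0.1 nM) incorporation over 30 min at 30°C measured by filtration and scintillation counting.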

[3] = tested on: memantine-induced 2DG uptake in mouse brain (hippocampus); assay: Reversal of memantine-induced brain activation ([14C]2DG uptake) in mice; assay type: in vivo; conditions: for L.A.D. (lowest active dose for significant reduction of 2DG uptake in hippocampus vs memantine response): mice C57BL/6, s.c., memantine 20 mg/kg s.c., p<0.05
Protocol: Reversal of Memantine-Induced Brain Activation in Mice
NMDA receptor hypofunction is hypothesized to be involved in schizophrenia.
Autoradiographic assessment of radiolabeled [^14C]-2-deoxyglucose ([^14C]2DG) uptake is commonly used to investigate brain activation. In humans, cerebral blood flow is increased in specific brain regions after administration of a subanaesthetic dose of ketamine.
Male mice (C57BL/6, weight 24-28 g, fasted overnight; n=10 animals per group) were treated with vehicle or test compound (s.c.) in randomized order (t=0 min). Memantine (20 mg/kg, s.c.) was injected 30 min later (t=30 min). At t=45 min, [^14C]2DG (0.16 μCi/g) was administered intraperitoneally (i.p.), followed by a 45 min uptake period. Animals were decapitated (t=90 min), plasma glucose levels measured, the brain removed, rapidly frozen and stored at −20° C. until sectioned. Brain sections were exposed together to a precalibrated [^14C]standard on film, which was developed after four days of exposure. Local tissue [^14C]concentration (nCi/mg tissue equivalent—TEQ—) in each region of interest was determined.
Data was analyzed statistically using a two-way ANOVA analysis followed by post-hoc tests (memantine response versus reversal by the compound). The results are shown in table 5 below, expressed as lowest active dose (L.A.D.) required to exert a statistically significant (p<0.05) reduction of 2DG uptake in the hippocampus compared to memantine response.

[4] = compound administered orally (*); a)/b) = estimated ED50 values
[5] = not marked * (not oral; injection per method); b) = estimated ED50 values (n = 3 per dose)

T1 sequence (Q14416 19-872): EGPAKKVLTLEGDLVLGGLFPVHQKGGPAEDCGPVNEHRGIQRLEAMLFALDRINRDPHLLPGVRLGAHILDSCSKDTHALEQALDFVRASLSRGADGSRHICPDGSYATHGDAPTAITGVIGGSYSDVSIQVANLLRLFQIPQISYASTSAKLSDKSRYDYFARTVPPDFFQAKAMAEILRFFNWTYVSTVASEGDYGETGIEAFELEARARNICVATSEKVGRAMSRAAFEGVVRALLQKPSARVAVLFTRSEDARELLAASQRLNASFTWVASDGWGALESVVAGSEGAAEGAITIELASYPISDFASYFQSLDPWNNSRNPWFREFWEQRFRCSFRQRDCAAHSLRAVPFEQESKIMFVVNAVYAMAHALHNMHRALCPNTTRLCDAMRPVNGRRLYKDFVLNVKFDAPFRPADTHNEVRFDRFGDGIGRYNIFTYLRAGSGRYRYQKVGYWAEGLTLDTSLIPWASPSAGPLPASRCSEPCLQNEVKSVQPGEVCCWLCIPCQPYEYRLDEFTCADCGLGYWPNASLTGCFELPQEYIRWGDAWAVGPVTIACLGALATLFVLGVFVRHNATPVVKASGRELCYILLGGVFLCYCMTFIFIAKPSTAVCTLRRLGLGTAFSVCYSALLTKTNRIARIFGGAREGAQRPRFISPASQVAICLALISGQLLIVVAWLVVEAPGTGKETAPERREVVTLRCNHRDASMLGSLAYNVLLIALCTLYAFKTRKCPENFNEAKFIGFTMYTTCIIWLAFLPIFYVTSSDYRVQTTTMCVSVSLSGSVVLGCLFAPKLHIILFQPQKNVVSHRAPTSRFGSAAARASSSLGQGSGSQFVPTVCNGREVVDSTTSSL

Row | GTPγS - hR2 PAM pEC50 (human mGluR2 receptor) | melting point [°C] | EC50 (human mGluR2 receptor) [nM] | Compound | inhibition of PCP-induced hyperlocomotion in mice (in words) [1] | further results
1 | 6.3 | – | – | Fc1ccc(N2CCN(c3ccn4c(CC(F)(F)F)nnc4c3Cl)CC2)c(F)c1 [compound 97] | inhibited | Mice ED50 (mg/kg) PCP-Inh., estimated ED50 (footnote a) [1]: 6.3 ^a) mg/kg; inhibition of the conditioned avoidance response in rats (in words) [2]: inhibited; ED50 (mg/kg) CAR-Inh. [2, 4]: 32*^b) mg/kg; ED50 (mg/kg) CAR-Inh. [2, 5]: 16^b) mg/kg; L.A.D. (lowest active dose for significant reduction of 2DG uptake in hippocampus vs memantine response) [3]: ≤10 mg/kg, s.c.
2 | 6.75 | – | – | FC(F)(F)Cc1nnc2c(Cl)c(N3CCC4(CC3)COc3ccccc34)ccn12 [compound 98] | – | Mice ED50 (mg/kg) PCP-Inh. [1]: >40 mg/kg; L.A.D. (lowest active dose for significant reduction of 2DG uptake in hippocampus vs memantine response) [3]: ≤10 mg/kg, s.c.
3 | – | 207.7 | 6.46 | CC1(C)OC2(CCN(c3ccn4c(CC5CC5)nnc4c3C(F)(F)F)CC2)c2ccccc21 [compound 112, 1′-[3-cyclopropylmethyl-8-(trifluoromethyl)[1,2,4]triazolo[4,3-a]pyridin-7-yl]-3,3-dimethyl-3H-spiro[benzo[c]furan-1,4′-piperidine]] | inhibited | ED50 [1]: 2 mg/kg; L.A.D. (lowest active dose for significant reduction of 2DG uptake in hippocampus vs memantine response) [3]: ≤2.5 mg/kg, s.c.
4 | 7.48 | – | – | CC1(c2ccccc2)CCN(c2ccn3c(CC4CC4)nnc3c2C(F)(F)F)CC1 [compound 151] | inhibited | Mice ED50 (mg/kg) PCP-Inh., estimated ED50 (footnote a) [1]: 12.6 ^a) mg/kg; L.A.D. (lowest active dose for significant reduction of 2DG uptake in hippocampus vs memantine response) [3]: 10 mg/kg, s.c.
5 | – | 147.5 | 93.3 | C[C@@H]1CN(c2ccn3c(CC4CC4)nnc3c2C(F)(F)F)CCN1c1cc(F)cc(F)c1 [compound 182, 3-(Cyclopropylmethyl)-7-((3R)-4-3,5-difluorophenyl-3-methylpiperazin-1-yl)-(8-trifluoromethyl)-1,2,4-triazolo[4,3-a]pyridine] | – | –
6 | – | 283.5 | 1350 | Cc1c(C2CCN(c3ccc(F)cc3F)CC2)ccn2c(CC3CC3)nnc12 [compound 204, 3-Cyclopropylmethyl-7-[1-(2,4-difluoro-phenyl)-piperidin-4-yl]-8-methyl-[1,2,4]triazolo[4,3-a]pyridine] | – | –
7 | – | 281.5 | 35.5 | Brc1c(N2CCC(c3ccccc3)CC2)ccn2c(CC3CC3)nnc12 [compound 207, 8-Bromo-3-cyclopropylmethyl-7-[4-phenylpiperidin-1-yl]-[1,2,4]triazolo[4,3-a]pyridine] | – | –
8 | – | 142.3 | 24 | CC(c1ccn2c(CC3CC3)nnc2c1C(F)(F)F)N1CCC(c2ccccc2)CC1 (stereo not drawn) [compound 244, 3-cyclopropylmethyl-7-[1-(4-phenyl-1-piperidinyl)ethyl]-8-trifluoromethyl-1,2,4-triazolo[4,3-a]pyridine] | – | Mice ED50 (mg/kg) PCP-Inh., estimated ED50 (footnote a) [1]: 5.0 ^a) mg/kg
9 | – | 182.1 | 166 | CC(c1ccn2c(CC3CC3)nnc2c1Cl)N1CCC(c2ccccc2)CC1 (stereo not drawn) [compound 255] | – | –
10 | – | 180.4 | 204 | Fc1cccc(F)c1N1CCN(Cc2ccn3c(CC4CC4)nnc3c2Cl)CC1 [compound 282] | – | –

The remaining lines, values behind:

Row | Compound | GTPγS - hR2 PAM pEC50 (human mGluR2 receptor) | melting point [°C] | EC50 (human mGluR2 receptor) [nM] | inhibition of PCP-induced hyperlocomotion in mice (in words) [1] | further results
11 | FC(F)(F)Cc1nnc2c(Cl)c(N3CCC(F)(c4ccccc4)CC3)ccn12 [compound 3, 8-Chloro-7-(4-fluoro-4-phenyl-1-piperidinyl)-3-(2,2,2-trifluoroethyl)-1,2,4-triazolo[4,3-a]pyridine] | 6.94 | – | – | inhibited | ED50 [1]: 15.2 mg/kg; inhibition of the conditioned avoidance response in rats (in words) [2]: inhibited; ED50 [2, 4]: 14.1 mg/kg; ED50 [2, 5]: 10.7 mg/kg; L.A.D. (lowest active dose for significant reduction of 2DG uptake in hippocampus vs memantine response) [3]: ≤2.5 mg/kg, s.c.
12 | FC(F)(F)C1(c2ccccc2)CCN(c2ccn3c(CC4CC4)nnc3c2Cl)CC1 [compound 15, 8-Chloro-3-(cyclopropylmethyl)-7-(4-trifluoromethyl-4-phenyl-piperidin-1-yl)-1,2,4-triazolo[4,3-a]pyridine] | 6.75 | 276.7 | – | – | ED50 [1]: > 10 mg/kg; ED50 [2, 4]: ≥ 40 mg/kg
13 | FC(F)(F)c1c(N2CCC3(CC2)COc2ccccc23)ccn2c(CC3CC3)nnc12 [compound 17, 1′-[3-cyclopropylmethyl-8-(trifluoromethyl)[1,2,4]triazolo[4,3-a]pyridin-7-yl]-spiro[1-benzofuran-3,4′-piperidine]] | – | > 300 | 35.5 | inhibited | ED50 [1]: 15.2 mg/kg
14 | FC(F)(F)c1c(N2CCN(c3ccccc3)CC2)ccn2c(CC3CC3)nnc12 [compound 76] | 6.93 | – | – | inhibited | Mice ED50 (mg/kg) PCP-Inh. [1]: 3.1^ mg/kg; ED50 (mg/kg) CAR-Inh. [2, 4]: ≥40* mg/kg
15 | Fc1ccc(N2CCN(Cc3ccn4c(CC5CC5)nnc4c3C(F)(F)F)CC2)c(F)c1 [compound 224, 3-(Cyclopropylmethyl)-7-[[4-(2,4-difluorophenyl)-1-piperazinyl]methyl]-8-(trifluoromethyl)-1,2,4-triazolo[4,3-a]pyridine] | – | – | – | inhibited | Mice ED50 (mg/kg) PCP-Inh., estimated ED50 (footnote a) [1]: 2.0 ^a) mg/kg; inhibition of the conditioned avoidance response in rats (in words) [2]: inhibited; ED50 [2, 5]: 5 mg/kg
16 | FC(F)(F)c1c(CN2CCC(c3ccccc3)CC2)ccn2c(CC3CC3)nnc12 [compound 298, 3-(Cyclopropylmethyl)-7-[(4-phenyl-1-piperidinyl)methyl]-8-(trifluoromethyl)-1,2,4-triazolo[4,3-a]pyridine] | – | – | – | inhibited | Mice ED50 (mg/kg) PCP-Inh., estimated ED50 (footnote a) [1]: 5.0 ^a) mg/kg; inhibition of the conditioned avoidance response in rats (in words) [2]: inhibited; ED50 [2, 5]: 5 mg/kg
17 | O=C(CCCN1CCC(O)(c2ccc(Cl)cc2)CC1)c1ccc(F)cc1 [haloperidol, reference compound] | – | – | – | – | effect on memantine-induced brain glucose metabolism / 2DG uptake (in words) ([3]; mouse brain, reference drugs): inactive
